The assay in a line: Inhibited co-autoxidation of egg phosphatidylcholine liposomes and STY-BODIPY (radical-trapping antioxidant activity). The procedure:
Inhibitors were then added (5 μl aliquots) at desired concentrations to the appropriate wells followed by vigorous mixing. […] Experiments were performed in triplicate using HPLC grade solvents and kinetic data is given as an average of three independent measurements. […]

For the substance “2,2,7,8-pentamethyl-6-chromanol [PMC, reference compound]”, the ΔSTY-BODIPY (time 53820 s) is -0.366 µM, the ΔSTY-BODIPY (time 53880 s) was -0.3653 µM, the ΔSTY-BODIPY (time 53940 s) is -0.3652 µM and the ΔSTY-BODIPY (time 54000 s) is recorded as -0.3628 µM.

Values taken from PMC8292346, “Dysfunction of the key ferroptosis-surveilling systems hypersensitizes mice to tubular necrosis during acute kidney injury” (Nature Communications, 2021).
